Holding throughout (experiment): NCI-60 cell line screen, 48 h
Experiment [1] deals with IGROV1 ovarian.
The subject of experiment [2] is MCF7 breast.
In experiment [3] the test system is NCI-H23 lung.
Experiment [4] concerns SN12C renal.
For experiment [5], the system named is SNB-19 CNS.
Experiment [6] has as its system SR leukemia.
Experiment [7] relates to T-47D breast.
Experiment [8] deals with U251 CNS.
Experiment [9] deals with UACC-257 melanoma.
Experiment [10] relates to UO-31 renal.

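1) Cells in 96-well plates. 2) Compound, 48 h, 5 concentrations. 3) Linear interpolation between surrounding doses. 4) Unreached endpoint = highest concentration. TGI marks complete inhibition of growth.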

On to `COc1ccc(N2C(=O)C3c4[nH]c5ccc(OCc6ccccc6)cc5c4C4CCC(c5ccccc5)CC4C3C2=O)cc1` (centres undefined), for which the TGI in experiment [1] is above 74.3 µM; in experiment [2], above 75 µM; in [3], 32.4 µM; in experiment [4], above 100 µM; in experiment [5] it was 40.1 µM; in [6], 7.14 µM. The TGI in experiment [7] was 77.3 µM; in [8], 11.2 µM; in experiment [9], above 100 µM; in experiment [10], above 96.9 µM.
As to `CCOC(=O)c1c(C)n(Cc2ccc(Cl)cc2Cl)c2c1cc(O)c1[nH]c3c(c12)CCCC3`, the TGI was 75.2 µM in experiment [1]; 52 µM in experiment [2]; 77.6 µM in experiment [3]; 58.6 µM in [4]; 58 µM in [5]; 0.379 µM in experiment [6]. Besides, the TGI is above 100 µM in [7], above 100 µM in experiment [8], 43.2 µM in [9] and 51.3 µM in experiment [10].
With `Cc1ccc2c(c1)-c1nc(N)c(C#N)c(-c3ccc(Cl)cc3)c1CCS2(=O)=O`, the TGI is above 100 µM in [1]; above 100 µM in experiment [3]; above 100 µM in experiment [4]; above 100 µM in experiment [5]; 65.6 µM in [6]; above 100 µM in [7]. Moreover, the figures for the TGI in experiment [8], in [9] and in experiment [10] were above 100 µM, above 100 µM and 86.2 µM, respectively.
As for `OC1[C@@H]2[C@@H](O)CCCN2C[C@@H](O)[C@H]1O` (some centres undefined), the TGI in experiment [1], in [2], in experiment [3], in [4], in experiment [5] and in [6] was above 100 µM in each case. The TGI in [7], in experiment [8], in experiment [9] and in experiment [10] was above 100 µM in each case.
Consider `Cc1ccc2nc(SCC(=O)N=Nc3c(O)[nH]c4ccccc34)n(-c3ccccc3)c(=O)c2c1`, for which the TGI was determined as 29.6 µM in [2]; 33.1 µM in [3]; 29.1 µM in experiment [4]; 40.6 µM in [5]; 36.7 µM in experiment [6]; 34 µM in experiment [7]. The TGI came out at 24.8 µM in [8], 55.7 µM in [9] and 12.9 µM in experiment [10].
Consider `CC12CCC(CC(=O)/C1=C(/Br)I)C2(C)C` (centres undefined), for which the TGI in experiment [1] is 31.4 µM; in [3], 27.9 µM; in [4] it was 29.6 µM; in [5], 30.7 µM; in experiment [6], 39 µM; in experiment [7], 46.4 µM. The TGI in experiment [9] is 29.8 µM; in experiment [10], 32.1 µM.
On to `O=C(Nc1ccccc1F)c1cc2ccc(O)cc2oc1=Nc1cccc(F)c1`, for which the TGI in [1] was 14.6 µM; in experiment [2] it was 95.1 µM; in experiment [3] it was 5.36 µM; in experiment [5], above 100 µM; in [6], 49.2 µM; in [7] it was 39.3 µM. The TGI in [8] worked out at 29.8 µM; in experiment [9], 65.6 µM; in [10], 29.3 µM.
For `O=C1C=CC(=O)c2c1ccc1c3ccccc3n(Cc3ccc([N+](=O)[O-])cc3)c21`, the TGI is above 100 µM in experiment [1]; above 100 µM in [2]; above 100 µM in [3]; above 100 µM in [4]; above 100 µM in [5]; 37.3 µM in [6]. The TGI in [7], in experiment [8], in [9] and in [10] was above 100 µM in each case.
With `O=c1[nH]c(Nc2ccccc2)nc2c1ncn2CC(O)CSCCO` (centres undefined), the TGI in experiment [1], in experiment [2], in experiment [3], in [4], in [5] and in experiment [6] was above 100 µM in each case. In addition, the TGI in experiment [7], in experiment [8] and in experiment [9] was above 100 µM in each case.
As to `O=C1[C@H](O)[C@@H]2C(O)O[C@H]3[C@@H]2N1C[C@H]3[Si](c1ccccc1)(c1ccccc1)c1ccccc1` (some centres undefined), the TGI in experiment [1], in experiment [2], in [3], in [5], in experiment [6] and in experiment [7] was above 100 µM in each case. Besides, the TGI in [8], in experiment [9] and in [10] was above 100 µM in each case.
Consider `COc1cccc(N2C(=O)CSC2c2cccc(Oc3ccccc3)c2)c1` (centres undefined), for which the TGI is 7.13 µM in experiment [2]; above 100 µM in [3]; 25 µM in [4]; above 100 µM in experiment [5]; 17.6 µM in [6]; above 100 µM in experiment [7]. In addition, the TGI is 19.3 µM in [8], 12.3 µM in experiment [9] and above 100 µM in [10].
Consider `O=[N+]([O-])c1ccccc1OCCOc1ccccc1[N+](=O)[O-]`, for which the TGI in experiment [1], in experiment [2], in [3], in experiment [4], in experiment [5] and in [6] was above 100 µM each time. Besides, the TGI in experiment [7], in experiment [8], in experiment [9] and in [10] was above 100 µM in each case.
In the case of `O=C(O)CC(Cc1ccccc1Cl)C(=O)O` (centres undefined), the TGI in experiment [1], in [2], in [3], in experiment [4], in experiment [5] and in [7] was above 100 µM throughout. Further, the TGI in experiment [8], in experiment [9] and in [10] was above 100 µM each time.
In the case of `C=CCC1(C#N)C(=S)NC2=C(C(=O)CC(C)(C)C2)C1c1ccccc1` (centres undefined), the TGI in [1], in experiment [3], in [4], in experiment [5], in experiment [6] and in [7] was above 100 µM in each case. The TGI in [8] and in experiment [10] was above 100 µM throughout.

Values taken from PubChem BioAssay (NCI).
